# Assay results published in patent US20090306080A1, “VETERINARY FORMULATION” (priority 2006, published 2009).
# Assay type: physicochemical
# Details: pH 7
# From the text: The solubility of cyromazine in a range of organic solvents including solvents which are commonly used in topical spray-on formulations is shown in the table below.
compound,measurement,value
"Nc1nc(N)nc(NC2CC2)n1 [cyromazine, 2-cyclopropyl-amino-4,6-diamino-s-triazine]",Solubility (g/kg) at 20° C.,1.3 (pH 7) g/kg
